Experimental data reported in paper PMC3686551 (Tuberculosis (Edinburgh, Scotland), 2013).

Target: Mtb FtsZ (Mycobacterium tuberculosis, UniProt P9WN95)
Assay: FtsZ polymerization inhibition
Type: biochemical

Mtb FtsZ, sequence (P9WN95 whole entry): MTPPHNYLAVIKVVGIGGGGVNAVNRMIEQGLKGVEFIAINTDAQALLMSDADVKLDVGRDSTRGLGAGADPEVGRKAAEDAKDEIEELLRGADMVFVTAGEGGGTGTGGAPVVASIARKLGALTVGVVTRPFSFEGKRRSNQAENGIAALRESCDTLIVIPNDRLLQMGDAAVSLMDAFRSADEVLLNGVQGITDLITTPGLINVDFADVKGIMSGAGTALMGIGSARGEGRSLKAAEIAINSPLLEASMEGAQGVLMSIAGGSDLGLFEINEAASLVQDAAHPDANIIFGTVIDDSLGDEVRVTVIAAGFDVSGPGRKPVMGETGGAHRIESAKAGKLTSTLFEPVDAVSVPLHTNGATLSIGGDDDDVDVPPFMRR

With `CCCOc1ccc(N(C)c2cc(C)nc3ccc(Cl)cc23)cc1` [compound 3] the IC50 was greater than 100 µM.
